The nature of series [1]: Hydrophilicity / water solubility. The note with it: qualitative. In kind it is physicochemical. The method, then:
These derivatives more or less have the properties of methylene blue, are hydrosoluble, active by the enteral and parenteral route (IV, SC, etc.) and they never give rise to acute or chronic toxicity nor undesirable effects, at doses comprised between 0.05 mg/Kg and 40 mg/Kg.

Series [2] is described as follows: Half life of the compound. The note with it: qualitative.
The conditions of series [3]: used externally and internally; cited from earlier work.
Series [4] deals with pernicious attacks resistant to quinine (malaria). The note with it: IV route; cited from earlier work.

For `CNc1ccc2nc3c(C)cc(N(C)C)cc3[s+]c2c1C` [Example 1, 4-5 dimethyl-7-(dimethylamino)-3(methylimino)-3H phenothiazine], the hydrophilicity result in series [1] is given as “decreased hydrophilicity”.

On to `CNc1ccc2nc3c(Cl)cc(N(C)C)cc3[s+]c2c1C` [Example 2], for which the hydrophilicity result in series [1] is reported as “more hydrophilic than the reference daughter molecule”. Also, the half life entry in series [2] is listed as “considerably increases the half life”.

On to `CNc1ccc2nc3c(O)cc(N(C)C)cc3[s+]c2c1O` [Example 4], for which the hydrophilicity result in series [1] is recorded as “very hydrophilic”. Further, in series [2], the half life result was “short half life”.

Regarding `CN(C)c1ccc2nc3ccc(=[N+](C)C)cc-3sc2c1` [Methylene blue, methylene blue], the antiseptic activity entry in series [3] is listed as “moderate”. For the same compound, the “activity on pernicious attacks resistant to quinine” value in series [4] is reported as “active”.
